# Data: paper PMC3287010, “Pharmacokinetic Study of Di-Phenyl-Di-(2,4-Difluobenzohydroxamato)Tin(IV): Novel Metal-Based Complex with Promising Antitumor Potential” (Bioinorganic Chemistry and Applications, 2012)
# Columns and labels:
# [1] = Stability of DPDFT in rat plasma QC samples (freeze/thaw, storage, autosampler); type: in vitro ADME; settings: 72 h at 4°C
# [2] = as above; type: in vitro ADME
# Description: Quality control (QC) samples were used to determine the accuracy and precision of method and were independently prepared at low (0.8 μg·mL^−1), medium (4 μg·mL^−1), and high (20 μg·mL^−1) concentrations. To evaluate the accuracy and precision, we used at least five QC samples of three different concentrations of DPDFT. The intraday and interday accuracies were expressed as the percentage difference between the measured concentration and the nominal concentration in rat plasma. The intraday precision and accuracy were calculated using replicate (n = 6) determinations for each concentration of the spiked plasma sample during a single analytical run. The interassay precision and accuracy were calculated using replicate (n = 6) determinations of each concentration made on three separate days. The variability of determination was expressed as the relative standard deviation (RSD) which should be ≤15%, covering the range of actual experimental concentrations.
# The stability of DPDFT in rat plasma was assessed by analyzing replicates (n = 6) of QC samples at concentrations of 0.8, 4, 20 μg·mL^−1, respectively. The investigation covered the expected conditions during all of the sample storage and process periods, which included the stability data from freeze/thaw cycle and long-term stability tests. The concentrations obtained from stability studies were compared with the freshly prepared QC samples, and the percentage concentration deviation was calculated. In each freeze–thaw cycle, the samples were frozen and stored at −20°C for 10 days, then thawed at room temperature. The stability of the fresh plasma samples was tested after keeping the samples at […], −20°C and room temperature for 72 h. The stability of deproteinized samples at 10°C in the autosampler was evaluated up to 24 h.
# [3] = Pharmacokinetic study in rats after single intravenous administration (HPLC-UV plasma determination, two-compartment model, 3p97 software); type: in vivo, Wistar albino rats; set-up: AUC / CL(s): unit not given here; settings: for A / B / CL(s) / K 10 (first order elimination from compartment 1) / K 12 (first order transfer from compartment 1 to compartment 2) / K 21 (first order transfer from compartment 2 to compartment 1) / V d / t 1/2a (distribution half-life) / t 1/2β (elimination half-life) / β: mean ± SD, n = 6
# Description: Laboratory bred adult Wistar albino rats (200–250 g), which were supplied by the Animal Research Center at Shanxi Medical University (Taiyuan, Shanxi Province, China), were housed at 25 ± 2°C in a well-ventilated animal house under 12 : 12 h light dark cycle. The animals drank sterilized drinking water, and standard chow diet was supplied ad libitum to each cage. The animal experiments were performed in accordance with the ARVO Statement for the Use of Animals in Ophthalmic and Vision Research and were approved by the Animal Ethics Committee of Shanxi Medical University.
# HPLC analysis was carried out using a Waters 2695 HPLC system (Waters Associates, Milford, MA) which consisted of a photodiode array detector, an autosampler, and a degasser. The apparatus was interfaced to a DELL PC compatible computer using Empower Pro software for data acquisition. The sensitivity was 0.2 AUFS. The autosampler was cooled to 10°C. The column was maintained at room temperature. Chromatographic separation of DPDFT and the I.S. was achieved on a Diamonsil C18 column (250 mm × 4.6 mm, 5 μm) from Dikma Technologies (Beijing, China) protected by a SHIMADZU LC guard column at 25°C. The mobile phase for HPLC analysis consisted of phosphoric acid in water (solvent A)/methanol (solvent B) (30 : 70, V/V, pH 3.0) with a flow rate of 0.8 mL·min^−1. A sample volume of 20 μL was injected. Prior to use, the mobile phase was filtered through a 0.45 μm hydrophilic membrane filter. The photodiode array detector was set at a wavelength of 228 nm at room temperature. Under the chromatographic condition mentioned above, DPDFT and the I.S. acetanilide could be separated completely in the chromatograms (R > 1.5), and there was no endogenous interference with the chromatographic peak of DPDFT and the I.S.acetanilide. Besides, the retention time of acetanilide (t R = 15.67 min) was very suitable as the I.S. compared to that of DPDFT (t R = 8.34 min).
# Blood samples collected from rat blood plasma were immediately transferred to 1.5 mL heparinized microcentrifuge tubes from fossa orbitalis of rats, and then processed for plasma by centrifugation. The supernatant plasma (0.2 mL) was then vortex-mixed with methanol (0.4 mL) containing acetanilide (0.2 mL, 50.0 μg·mL^−1) as internal standard (I.S.) for 30 s. After vortex-mixing, the mixture was centrifuged at 13000 rpm for 10 min 4°C to separate precipitated proteins. The supernatant solution of methanol layer was filtered through a 0.45 μm membrane filter. Twenty microliters of filtrate were injected into the chromatography. The same sample processing was also applied to the recovery and to the precision study in plasma. All harvested samples stored at −4°C were brought to room temperature before use and analyzed within one week.
# To evaluate the suitability of the assay for pharmacokinetic studies, 7.5, 15, and 30 mg·kg^−1 of DPDFT were intravenously administered to rats (half males and half females, resp.). Six animals were used in each dosage by direct injection into a lateral tail vein, with a duration of infusion less than 1 min. Heparinized blood samples (0.5 mL) were collected at 0, 1, 3, 5, 10, 30, 60, and 120 min after injection. […]. After each sampling, the removed volume of blood was supplemented with an equal volume of sodium chloride. The blood samples were immediately centrifuged and the resulting plasma was prepared according to the procedure given for the calibrators. Pharmacokinetic calculations were performed using the observed data. […] All values obtained were expressed in mean ± standard deviation.
# [4] = Stability of stock solution stored at 4°C; type: physicochemical; settings: stock solution in methanol
# Description: A stock solution of DPDFT was prepared in methanol at the concentration of 100 mg·mL^−1 and was further diluted in HPLC mobile phase to make working standards. The I.S. stock solution was prepared and diluted to 50.0 μg·mL^−1 working solution with HPLC mobile phase. All the stock solutions were maintained at 4°C until use.
# Stability of DPDFT during storage and processing was checked using quality control samples. The DPDFT and I.S. stock solutions were stable for at least 2 months when stored at 4°C. The deviation of the mean test responses was within ±10% of appropriate controls in all stability tests of DPDFT in rat plasma. After three freeze-thaw cycles, the concentration changes of DPDFT were less than 7%. The analyte was stable in the matrices at 4, −20°C and room temperature for 72 h without significant degradation (<8%).
# [5] = rats, i.v., 15 mg·kg^−1 (middle)
# [6] = rats, i.v., 7.5, 15, and 30 mg·kg^−1
smiles,measurement,setting,value
"O=C(N[O][Sn]([O]NC(=O)c1ccc(F)cc1F)([c]1ccccc1)[c]1ccccc1)c1ccc(F)cc1F [DPDFT, Di-phenyl-di-(2,4-difluobenzohydroxamato)tin(IV)]",Accuracy = [(Cobs − Cnom)/Cnom] × 100,[1]; nominal 4 μg·mL^−1,−7.50%
same,Observed concentration ± SD,"[1]; nominal 20 μg·mL^−1, n = 6",21.14 ± 1.27 µg/mL
same,deviation of the mean test responses from appropriate controls,[2]; all stability tests in rat plasma,≤ 10%
same,run-time stability (concentration change),"[2]; deproteinized rat plasma, 10°C for up to 24 h",< 6%
same,Accuracy = [(Cobs − Cnom)/Cnom] × 100,"[2]; deproteinized rat plasma, autosampler 24 h at 10°C, nominal 0.8 μg·mL^−1",3.75%
same,Observed concentration ± SD,"[2]; deproteinized rat plasma, autosampler 24 h at 10°C, nominal 0.8 μg·mL^−1, n = 6",0.83 ± 0.04 µg/mL
same,Accuracy = [(Cobs − Cnom)/Cnom] × 100,"[2]; deproteinized rat plasma, autosampler 24 h at 10°C, nominal 4 μg·mL^−1",−4.25%
same,Observed concentration ± SD,"[2]; deproteinized rat plasma, autosampler 24 h at 10°C, nominal 4 μg·mL^−1, n = 6",3.83 ± 0.18 µg/mL
same,Accuracy = [(Cobs − Cnom)/Cnom] × 100,"[2]; deproteinized rat plasma, autosampler 24 h at 10°C, nominal 20 μg·mL^−1",−4.05%
same,Observed concentration ± SD,"[2]; deproteinized rat plasma, autosampler 24 h at 10°C, nominal 20 μg·mL^−1, n = 6",19.19 ± 1.08 µg/mL
same,degradation in the matrices,"[2]; rat plasma, 4, −20°C and room temperature for 72 h",< 8%
same,Accuracy = [(Cobs − Cnom)/Cnom] × 100,"[2]; rat plasma, 72 h at 4°C, nominal 0.8 μg·mL^−1",8.75%
same,Observed concentration ± SD,"[2]; rat plasma, 72 h at 4°C, nominal 0.8 μg·mL^−1, n = 6",0.87 ± 0.04 µg/mL
same,Observed concentration ± SD,"[2]; rat plasma, 72 h at 4°C, nominal 4 μg·mL^−1, n = 6",3.70 ± 0.16 µg/mL
same,Accuracy = [(Cobs − Cnom)/Cnom] × 100,"[2]; rat plasma, 72 h at 4°C, nominal 20 μg·mL^−1",5.70%
same,Accuracy = [(Cobs − Cnom)/Cnom] × 100,"[2]; rat plasma, 72 h at room temperature, nominal 0.8 μg·mL^−1",−2.50%
same,Observed concentration ± SD,"[2]; rat plasma, 72 h at room temperature, nominal 0.8 μg·mL^−1, n = 6",0.78 ± 0.05 µg/mL
same,Accuracy = [(Cobs − Cnom)/Cnom] × 100,"[2]; rat plasma, 72 h at room temperature, nominal 4 μg·mL^−1",−3.25%
same,Observed concentration ± SD,"[2]; rat plasma, 72 h at room temperature, nominal 4 μg·mL^−1, n = 6",3.87 ± 0.19 µg/mL
same,Observed concentration ± SD,"[2]; rat plasma, 72 h at room temperature, nominal 20 μg·mL^−1, n = 6",19.46 ± 1.19 µg/mL
same,Accuracy = [(Cobs − Cnom)/Cnom] × 100,"[2]; rat plasma, 72 h at −20°C, nominal 0.8 μg·mL^−1",−7.50%
same,Observed concentration ± SD,"[2]; rat plasma, 72 h at −20°C, nominal 0.8 μg·mL^−1, n = 6",0.74 ± 0.05 µg/mL
same,Accuracy = [(Cobs − Cnom)/Cnom] × 100,"[2]; rat plasma, 72 h at −20°C, nominal 4 μg·mL^−1",5.50%
same,Observed concentration ± SD,"[2]; rat plasma, 72 h at −20°C, nominal 4 μg·mL^−1, n = 6",4.22 ± 0.12 µg/mL
same,Accuracy = [(Cobs − Cnom)/Cnom] × 100,"[2]; rat plasma, 72 h at −20°C, nominal 20 μg·mL^−1",−4.35%
same,Observed concentration ± SD,"[2]; rat plasma, 72 h at −20°C, nominal 20 μg·mL^−1, n = 6",19.13 ± 1.53 µg/mL
same,concentration changes after three freeze-thaw cycles,"[2]; rat plasma, frozen at −20°C, thawed at room temperature",less than 7%
same,Accuracy = [(Cobs − Cnom)/Cnom] × 100,"[2]; rat plasma, three freeze and thaw cycles, nominal 0.8 μg·mL^−1",−5.00%
same,Observed concentration ± SD,"[2]; rat plasma, three freeze and thaw cycles, nominal 0.8 μg·mL^−1, n = 6",0.76 ± 0.05 µg/mL
same,Accuracy = [(Cobs − Cnom)/Cnom] × 100,"[2]; rat plasma, three freeze and thaw cycles, nominal 4 μg·mL^−1",−5.25%
same,Observed concentration ± SD,"[2]; rat plasma, three freeze and thaw cycles, nominal 4 μg·mL^−1, n = 6",3.79 ± 0.13 µg/mL
same,Accuracy = [(Cobs − Cnom)/Cnom] × 100,"[2]; rat plasma, three freeze and thaw cycles, nominal 20 μg·mL^−1",−5.15%
same,Observed concentration ± SD,"[2]; rat plasma, three freeze and thaw cycles, nominal 20 μg·mL^−1, n = 6",18.97 ± 1.17 µg/mL
same,DPDFT concentration in blood sample,"[3]; collected at 3 min after administration of 15 mg·kg^−1, i.v.",2.4 µg/mL
same,A,"[3]; rats, i.v., 7.5 mg·kg^−1 (low)",2.21 ± 0.03 min⁻¹
same,B,"[3]; rats, i.v., 7.5 mg·kg^−1 (low)",0.15 ± 0.04 mg/kg
same,CL(s),"[3]; rats, i.v., 7.5 mg·kg^−1 (low)",0.66 ± 0.05
same,K 10 (first order elimination from compartment 1),"[3]; rats, i.v., 7.5 mg·kg^−1 (low)",0.32 ± 0.05 min⁻¹
same,K 12 (first order transfer from compartment 1 to compartment 2),"[3]; rats, i.v., 7.5 mg·kg^−1 (low)",0.26 ± 0.04 min⁻¹
same,K 21 (first order transfer from compartment 2 to compartment 1),"[3]; rats, i.v., 7.5 mg·kg^−1 (low)",0.08 ± 0.004 min⁻¹
same,V d,"[3]; rats, i.v., 7.5 mg·kg^−1 (low)",2.13 ± 0.07 L/kg
same,t 1/2a (distribution half-life),"[3]; rats, i.v., 7.5 mg·kg^−1 (low)",1.04 ± 0.01 min
same,t 1/2β (elimination half-life),"[3]; rats, i.v., 7.5 mg·kg^−1 (low)",17.68 ± 2.6 min
same,β,"[3]; rats, i.v., 7.5 mg·kg^−1 (low)",0.04 ± 0.003 min⁻¹
same,A,[3]; [5],7.94 ± 3.12 min⁻¹
same,B,[3]; [5],0.92 ± 0.04 mg/kg
same,CL(s),[3]; [5],0.27 ± 0.02
same,K 10 (first order elimination from compartment 1),[3]; [5],0.24 ± 0.08 min⁻¹
same,K 12 (first order transfer from compartment 1 to compartment 2),[3]; [5],0.38 ± 0.01 min⁻¹
same,K 21 (first order transfer from compartment 2 to compartment 1),[3]; [5],0.11 ± 0.01 min⁻¹
same,V d,[3]; [5],1.13 ± 0.08 L/kg
same,t 1/2a (distribution half-life),[3]; [5],1.01 ± 0.01 min
same,t 1/2β (elimination half-life),[3]; [5],19.38 ± 3.6 min
same,β,[3]; [5],0.04 ± 0.003 min⁻¹
same,A,"[3]; rats, i.v., 30 mg·kg^−1 (high)",22.36 ± 8.12 min⁻¹
same,B,"[3]; rats, i.v., 30 mg·kg^−1 (high)",1.85 ± 0.44 mg/kg
same,K 10 (first order elimination from compartment 1),"[3]; rats, i.v., 30 mg·kg^−1 (high)",0.30 ± 0.18 min⁻¹
same,K 12 (first order transfer from compartment 1 to compartment 2),"[3]; rats, i.v., 30 mg·kg^−1 (high)",0.28 ± 0.11 min⁻¹
same,K 21 (first order transfer from compartment 2 to compartment 1),"[3]; rats, i.v., 30 mg·kg^−1 (high)",0.09 ± 0.01 min⁻¹
same,V d,"[3]; rats, i.v., 30 mg·kg^−1 (high)",0.62 ± 0.08 L/kg
same,t 1/2a (distribution half-life),"[3]; rats, i.v., 30 mg·kg^−1 (high)",1.12 ± 0.1 min
same,t 1/2β (elimination half-life),"[3]; rats, i.v., 30 mg·kg^−1 (high)",16.81 ± 3.6 min
same,β,"[3]; rats, i.v., 30 mg·kg^−1 (high)",0.04 ± 0.003 min⁻¹
same,compartment model fitted to concentration-time data,[3]; [6],two-compartment model
same,difference in pharmacokinetic parameters between male and female rats,[3]; [6],no significant differences
same,dose linearity of pharmacokinetics,"[3]; rats, i.v., from 7.5 to 30 mg/kg",nonlinear process
same,time stock solution was stable,[4],at least 2 months
